Measurements taken from the OligoGym collection.
HELM strings list units from the 5' end as sugar, base in round brackets, then linkage (d deoxyribose, r ribose, m 2'-O-methyl, p phosphodiester). Strings are as the collection lists them; they lack the last nucleoside at the 3' end of the tested compound. [moe] = 2'-O-(2-methoxyethyl) (MOE); [sp] = phosphorothioate linkage; [m5C] = 5-methylcytosine

Target: UBE3A-ATS
Experiment: mouse, dose not given
Details: ASO

RNA1{[moe](G)[sp].[moe](T)p.[moe](G)p.[moe](G)p.[moe](T)p.d(T)[sp].d(T)[sp].d([m5C])[sp].d([m5C])[sp].d(A)[sp].d(G)[sp].d([m5C])[sp].d(A)[sp].d(G)[sp].d(G)[sp].[moe](G)p.[moe](T)p.[moe](G)[sp].[moe](T)}$$$$ (last 3' nucleoside missing)
3 h FOB score: 5.8 score 0-7

RNA1{[moe](G)[sp].[moe](T)p.[moe](G)p.[moe](G)p.[moe](T)p.d([m5C])[sp].d(A)[sp].d(G)[sp].d(A)[sp].d(T)[sp].d(T)[sp].d([m5C])[sp].d([m5C])[sp].d(T)[sp].d(A)[sp].[moe](A)p.[moe](A)p.[moe](T)[sp].[moe](A)}$$$$ (last 3' nucleoside missing)
3 h FOB score: 0 score 0-7

RNA1{[moe](G)[sp].[moe](T)p.[moe](G)p.[moe](T)p.[moe](G)p.[moe](T)p.d(T)[sp].d(T)[sp].d(T)[sp].d(T)[sp].d([m5C])[sp].d([m5C])[sp].d(A)[sp].d(T)[sp].d(T)[sp].d(T)[sp].[moe](T)p.[moe](T)[sp].[moe]([m5C])}$$$$ (last 3' nucleoside missing)
3 h FOB score: 0 score 0-7

RNA1{[moe](G)[sp].[moe](T)p.[moe](G)p.[moe](T)p.[moe](G)p.d(G)[sp].d(A)[sp].d(T)[sp].d(G)[sp].d(G)[sp].d(T)[sp].d(A)[sp].d(T)[sp].d([m5C])[sp].d([m5C])[sp].[moe](T)p.[moe](G)p.[moe](G)[sp].[moe](T)}$$$$ (last 3' nucleoside missing)
3 h FOB score: 5.5 score 0-7

RNA1{[moe](G)[sp].[moe](T)p.[moe](G)p.[moe](T)p.[moe](G)p.d(T)[sp].d(G)[sp].d([m5C])[sp].d(A)[sp].d(A)[sp].d(T)[sp].d(A)[sp].d(G)[sp].d([m5C])[sp].d([m5C])[sp].[moe](T)p.[moe](A)p.[moe](A)[sp].[moe](A)}$$$$ (last 3' nucleoside missing)
3 h FOB score: 3.5 score 0-7

RNA1{[moe](G)[sp].[moe](T)p.[moe](G)p.[moe](T)p.[moe](G)p.d(T)[sp].d(T)[sp].d(T)[sp].d(T)[sp].d(T)[sp].d([m5C])[sp].d([m5C])[sp].d(A)[sp].d(T)[sp].d(T)[sp].[moe](T)p.[moe](T)p.[moe](T)[sp].[moe]([m5C])}$$$$ (last 3' nucleoside missing)
3 h FOB score: 0 score 0-7

RNA1{[moe](G)[sp].[moe](T)p.[moe](G)p.[moe](T)p.[moe](G)p.d([m5C])[sp].d([m5C])[sp].d(A)[sp].d(T)[sp].d(A)[sp].d(G)[sp].d(G)[sp].d(T)[sp].d(T)[sp].d(T)[sp].[moe]([m5C])p.[moe](A)p.[moe](G)[sp].[moe](G)}$$$$ (last 3' nucleoside missing)
3 h FOB score: 2.8 score 0-7

RNA1{[moe](G)[sp].[moe](T)p.[moe](G)p.[moe](T)p.[moe](T)p.[moe](T)p.d(T)[sp].d(T)[sp].d([m5C])[sp].d([m5C])[sp].d(A)[sp].d(T)[sp].d(T)[sp].d(T)[sp].d(T)[sp].d(T)[sp].[moe]([m5C])p.[moe](T)[sp].[moe]([m5C])}$$$$ (last 3' nucleoside missing)
3 h FOB score: 0 score 0-7

RNA1{[moe](G)[sp].[moe](T)p.[moe](G)p.[moe](T)p.[moe](T)p.d(T)[sp].d(A)[sp].d(T)[sp].d([m5C])[sp].d([m5C])[sp].d(A)[sp].d(A)[sp].d(A)[sp].d([m5C])[sp].d([m5C])[sp].[moe](A)p.[moe](A)p.[moe](G)[sp].[moe](G)}$$$$ (last 3' nucleoside missing)
3 h FOB score: 3 score 0-7

RNA1{[moe](G)[sp].[moe](T)p.[moe](G)p.[moe](T)p.[moe](T)p.d(T)[sp].d(T)[sp].d(T)[sp].d([m5C])[sp].d([m5C])[sp].d(A)[sp].d(T)[sp].d(T)[sp].d(T)[sp].d(T)[sp].[moe](T)p.[moe]([m5C])p.[moe](T)[sp].[moe]([m5C])}$$$$ (last 3' nucleoside missing)
3 h FOB score: 0 score 0-7
